Assays:
CDK4/cyclin D3 = target: T1, CDK4/cyclin D3 (Homo sapiens, UniProt P11802); assay: In vitro biochemical kinase activity assay for CDK4/cyclin D3 (HTRF)
T1 construct: purchased Carna
Method: II. In Vitro Biochemical Kinase Activity Assay for CDK4/Cyclin D3
The inhibitory effects of the compounds of the present invention on CDK4/cyclin D3 kinase activity were determined using an HTRF assay. The experimental process was as follows: • 1. The kinase reaction was carried out in a 384-well plate. 4.9 nM CDK4/cyclin D3 (Carna), 1 mM (or 80 µM) ATP, and 0.3 µM biotin-labeled substrate protein Rb-biotin (Cisbio) were incubated at 30°C for 90 min in a buffer system composed of 50 mM MgCl2, 1 mM DTT, and basal kinase buffer (Cisbio). • 2. The detection solution (Cisbio, containing reagents that specifically recognize phosphorylated Rb and Rb-biotin proteins, respectively) was added. The plate was then sealed with a film (to protect from light and volatilization) and incubated at 25°C for 60 min. • 3. The plate was transferred to an Envision plate reader to detect FRET signals. (The 665/615 ratio was calculated by reading the emission at 665 nm and 615 nM, respectively.) • 4. The IC50 values were determined by analyzing the inhibition at varying compound concentrations using Model 205 in the XLfit software.

CDK6/cyclin D3 = target: T2, CDK6/cyclin D3 (Homo sapiens, UniProt Q00534); assay: In vitro biochemical kinase activity assay for CDK6/cyclin D3 (HTRF)
T2 construct: purchased Carna
Method: III. In Vitro Biochemical Kinase Activity Assay for CDK6/Cyclin D3
The inhibitory effects of the compounds of the present invention on CDK6/cyclin D3 kinase activity were determined using an HTRF assay. The experimental process was as follows: 1. The kinase reaction was carried out in a 384-well plate. 0.02 nM CDK6/cyclin D3 (Carna), 1 mM (or 100 µM) ATP, and 0.3 µM biotin-labeled substrate protein Rb-biotin (Cisbio) were incubated at 30°C for 60 min in a buffer system composed of 5 mM MgCl2, 1 mM DTT, and basal kinase buffer (Cisbio). 2. The detection solution (Cisbio, containing reagents that specifically recognize phosphorylated Rb and Rb-biotin proteins, respectively) was added. The plate was then sealed with a film (to protect from light and volatilization) and incubated at 25°C for 60 min. 3. The plate was transferred to an Envision plate reader to detect FRET signals. (The 665/615 ratio was calculated by reading the emission at 665 nm and 615 nM, respectively.) 4. The IC50 values were determined by analyzing the inhibition at varying compound concentrations using Model 205 in the XLfit software.

[1] = data marked with *: 1 mM ATP in Step 1

T2 sequence (Q00534 whole entry): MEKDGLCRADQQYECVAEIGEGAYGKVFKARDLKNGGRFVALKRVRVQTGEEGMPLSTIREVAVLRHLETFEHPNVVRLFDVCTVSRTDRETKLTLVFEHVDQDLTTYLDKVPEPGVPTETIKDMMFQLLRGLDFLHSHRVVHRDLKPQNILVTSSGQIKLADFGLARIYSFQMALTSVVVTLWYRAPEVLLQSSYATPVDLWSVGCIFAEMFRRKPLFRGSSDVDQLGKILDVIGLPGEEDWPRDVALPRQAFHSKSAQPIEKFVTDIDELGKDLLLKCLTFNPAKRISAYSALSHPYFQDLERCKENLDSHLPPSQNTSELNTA
T2 sequence (P30281 whole entry partner): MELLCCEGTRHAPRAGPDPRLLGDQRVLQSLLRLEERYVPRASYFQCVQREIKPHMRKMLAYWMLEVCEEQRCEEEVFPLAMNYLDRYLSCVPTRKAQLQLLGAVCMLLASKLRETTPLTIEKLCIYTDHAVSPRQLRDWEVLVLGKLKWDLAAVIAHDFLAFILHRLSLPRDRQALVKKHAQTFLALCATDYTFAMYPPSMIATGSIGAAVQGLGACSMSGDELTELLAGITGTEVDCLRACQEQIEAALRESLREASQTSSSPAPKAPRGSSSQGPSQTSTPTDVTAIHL
T1 sequence (P11802 whole entry): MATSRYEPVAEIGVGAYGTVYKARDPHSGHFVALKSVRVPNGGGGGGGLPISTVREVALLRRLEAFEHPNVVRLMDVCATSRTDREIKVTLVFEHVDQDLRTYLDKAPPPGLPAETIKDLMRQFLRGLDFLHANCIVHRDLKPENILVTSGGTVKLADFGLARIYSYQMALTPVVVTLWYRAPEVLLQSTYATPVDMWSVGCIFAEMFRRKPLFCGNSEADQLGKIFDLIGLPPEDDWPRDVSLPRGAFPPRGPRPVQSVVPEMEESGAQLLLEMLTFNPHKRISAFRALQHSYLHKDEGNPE
T1 sequence (P30281 whole entry partner): as the sequence (P30281 whole entry partner) above

Row | IC50 (CDK4/cyclin D3; [1]) | IC50 (CDK6/cyclin D3; [1]) | IC50 (CDK4/cyclin D3; unmarked data: 80 µM ATP in Step 1) | IC50 (CDK6/cyclin D3; unmarked data: 100 µM ATP in Step 1) | Compound
1 | 5.37 nM | 15.4 nM |  |  | CC(C)n1c(C#Cc2nc(Nc3ccc(C4C5CN(C)CC54)cn3)ncc2Cl)cnc1C(C)(C)O (stereo not shown) [Example 119, 2-(5-((5-chloro-2-((5-(3-methyl-3-azabicyclo[3.1.0]hexan-6-yl)pyridin-2-yl)amino)pyrimidin-4-yl)ethynyl)-1-isopropyl-1H-imidazol-2-yl)propan-2-ol]
2 | 7.99 nM | 28.4 nM |  |  | CC(C)n1c(C#Cc2nc(Nc3ccc(C(=O)N4CCCC4)cn3)ncc2Cl)cnc1C(C)(C)O [Example 114, (6-((5-chloro-4-((2-(2-hydroxypropan-2-yl)-1-isopropyl-1H-imidazol-5-yl)ethynyl)pyrimidin-2-yl)amino)pyridin-3-yl)(pyrrolidin-1-yl)methanone]
3 | 20.1 nM | 341 nM |  |  | CC(C)n1c(C#Cc2nc(N[C@@H]3CCOC[C@H]3O)ncc2Cl)cnc1CN1[C@@H](C)COC[C@@H]1C [Example 74, (3 S,4R)-4-((5-chloro-4-((2-(((3 S,5 S)-3,5-dimethylmorpholino)methyl)-1-isopropyl-1H-imidazol-5-yl)ethynyl)pyrimidin-2-yl)amino)tetrahydro-2H-pyran-3-ol]
4 | 9.86 nM | 59.1 nM |  |  | CCN1CC2(C1)CN(c1ccc(Nc3ncc(F)c(C#Cc4cnc(C)n4C(C)C)n3)nc1)C2 [Example 81, N-(5-(6-ethyl-2,6-diazaspiro[3.3]heptan-2-yl)pyridin-2-yl)-5-fluoro-4-((1-isopropyl-2-methyl-1H-imidazol-5-yl)ethynyl)pyrimidin-2-amine]
5 | 3290 nM |  |  |  | CC(C)n1c(C#Cc2nc(N[C@@H]3CCC[C@@H](C(=O)N(C)C)C3)ncc2Cl)cnc1C(C)(C)O [Example 96, (1R,3R)-3-((5-chloro-4-((2-(2-hydroxypropan-2-yl)-1-isopropyl-1H-imidazol-5-yl)ethynyl)pyrimidin-2-yl)amino)-N,N-dimethylcyclohexane-1-carboxamide]
6 | 179 nM | 1240 nM |  |  | CC(C)n1c(C#Cc2nc(N[C@@H]3CCOC[C@H]3O)ncc2Cl)cnc1C1CCO1 (stereo partly drawn) [Example 112, (3S,4R)-4-((5-chloro-4-((1-isopropyl-2-(oxetan-2-yl)-1H-imidazol-5-yl)ethynyl)pyrimidin-2-yl)amino)tetrahydro-2H-pyran-3-ol]
7 | 6.43 nM | 26.7 nM |  |  | CC(C)n1c(C#Cc2nc(Nc3ccc(C4CCN(C)CC4)cn3)ncc2F)cnc1C(C)(C)O [Example 73, 2-(5-((5-fluoro-2-((5-(1-methylpiperidin-4-yl)pyridin-2-yl)amino)pyrimidin-4-yl)ethynyl)-1-isopropyl-1H-imidazol-2-yl)propan-2-ol]
8 | 6.69 nM | 25.9 nM |  |  | CC(C)n1c(C#Cc2nc(Nc3ccc(C(=O)N(C)C)cn3)ncc2Cl)cnc1C(C)(C)O [Example 100, 6-((5-chloro-4-((2-(2-hydroxypropan-2-yl)-1-isopropyl-1H-imidazol-5-yl)ethynyl)pyrimidin-2-yl)amino)-N,N-dimethylnicotinamide]
9 | 75.5 nM | 393 nM |  |  | CC(C)n1c(C#Cc2nc(N[C@@H]3CCOC[C@H]3O)ncc2Cl)cnc1CN1CCC[C@@H](O)C1 [Example 78, (R)-1-((5-((5-chloro-2-(((3 S,4R)-3-hydroxytetrahydro-2H-pyran-4-yl)amino)pyrimidin-4-yl)ethynyl)-1-isopropyl-1H-imidazol-2-yl)methyl)piperidin-3-ol]
10 | 1.62 nM | 5.94 nM |  |  | CCN1CCN(Cc2ccc(Nc3cc(C#Cc4cnc(C(C)(C)O)n4C(C)C)c(Cl)cn3)nc2)CC1 [Example 77, 2-(5-((5-chloro-2-((5-((4-ethylpiperazin-1-yl)methyl)pyridin-2-yl)amino)pyridin-4-yl)ethynyl)-1-isopropyl-1H-imidazol-2-yl)propan-2-ol]
11 | 3970 nM | 9360 nM |  |  | CC(=O)N[C@@H]1COCC[C@H]1Nc1ncc(Cl)c(C#Cc2cnc(C(C)(C)O)n2C(C)C)n1 [Example 87, N-((3 S,4R)-4-((5-chloro-4-((2-(2-hydroxypropan-2-yl)-1-isopropyl-1H-imidazol-5-yl)ethynyl)pyrimidin-2-yl)amino)tetrahydro-2H-pyran-3-yl)acetamide]
12 | 8.86 nM | 116 nM |  |  | CCN1CCN(Cc2ccc(Nc3ncc(Cl)c(C#Cc4cnc(CN5CCC[C@H](O)C5)n4C(C)C)n3)nc2)CC1 [Example 107, (S)-1-((5-((5-chloro-2-((5-((4-ethylpiperazin-1-yl)methyl)pyridin-2-yl)amino)pyrimidin-4-yl)ethynyl)-1-isopropyl-1H-imidazol-2-yl)methyl)piperidin-3-ol]
13 | 2.65 nM | 12 nM |  |  | CCN1CC2(C1)CN(c1ccc(Nc3ncc(Cl)c(C#Cc4cnc(C)n4C(C)C)n3)nc1)C2 [Example 80, 5-chloro-N-(5-(6-ethyl-2,6-diazaspiro[3.3]heptan-2-yl)pyridin-2-yl)-4-((1-isopropyl-2-methyl-1H-imidazol-5-yl)ethynyl)pyrimidin-2-amine]
14 | 93.7 nM | 243 nM |  |  | CC1CCOc2ncc(C#Cc3nc(N[C@@H]4CCOC[C@H]4O)ncc3Cl)n21 (stereo partly drawn) [Example 132, (3 S,4R)-4-((5-chloro-4-((5-methyl-6,7-dihydro-5H-imidazo[2,1-o][1,3]oxazin-3-yl)ethynyl)pyrimidin-2-yl)amino)tetrahydro-2H-pyran-3-ol]
15 | 172 nM | 2120 nM |  |  | CC(C)n1c(C#Cc2nc(N[C@@H]3CCOC[C@H]3O)ncc2Cl)cnc1CN1CC(C)(O)C1 [Example 38, 1-((5-((5-chloro-2-(((3 S,4R)-3-hydroxytetrahydro-2H-pyran-4-yl)amino)pyrimidin-4-yl)ethynyl)-1-isopropyl-1H-imidazol-2-yl)methyl)-3-methylazetidin-3-ol]
16 | 33.3 nM | 280 nM |  |  | CC(=O)N1CCN(Cc2ccc(Nc3ncc(Cl)c(C#Cc4cnc(CN5CCC[C@H](O)C5)n4C(C)C)n3)nc2)CC1 [Example 106, (S)-1-(4-((6-((5-chloro-4-((2-((3-hydroxypiperidin-1-yl)methyl)-1-isopropyl-1H-imidazol-5-yl)ethynyl)pyrimidin-2-yl)amino)pyridin-3-yl)methyl)piperazin-1-yl)ethan-1-one]
17 | 26.1 nM | 130 nM |  |  | CC(C)n1c(C#Cc2nc(N[C@@H]3CCOC[C@H]3O)ncc2Cl)cnc1C1CC1 [Example 120, (3 S,4R)-4-((5-chloro-4-((2-cyclopropyl-1-isopropyl-1H-imidazol-5-yl)ethynyl)pyrimidin-2-yl)amino)tetrahydro-2H-pyran-3-ol]
18 | 99.7 nM | 520 nM |  |  | COC1COCC[C@H]1Nc1ncc(Cl)c(C#Cc2cnc(C(C)(C)O)n2C(C)C)n1 (stereo partly drawn) [Example 92, 2-(5-((5-chloro-2-(((4R)-3-methoxytetrahydro-2H-pyran-4-yl)amino)pyrimidin-4-yl)ethynyl)-1-isopropyl-1H-imidazol-2-yl)propan-2-ol]
19 | 16.2 nM | 44.9 nM |  |  | CC(=O)N1CC2(C1)CN(c1ccc(Nc3ncc(F)c(C#Cc4cnn(C)c4C(C)C)n3)nc1)C2 [Example 89, 1-(6-(6-((5-fluoro-4-((5-isopropyl-1-methyl-1H-pyrazol-4-yl)ethynyl)pyrimidin-2-yl)amino)pyridin-3-yl)-2,6-diazaspiro[3.3]heptan-2-yl)ethan-1-one]
20 |  |  | 119 nM | 1200 nM | CC(C)c1nn(CC(C)(C)O)cc1C#Cc1nc(N[C@@H]2CCOC[C@H]2O)ncc1Cl [Example 65, (3 S,4R)-4-((5-chloro-4-((1-(2-hydroxy-2-methylpropyl)-3-isopropyl-1H-pyrazol-4-yl)ethynyl)pyrimidin-2-yl)amino)tetrahydro-2H-pyran-3-ol]
21 | 2860 nM |  |  |  | CCN1CC2(C1)CN(c1ccc(Nc3ncc(F)c(C#Cc4cnn(C)c4C(C)(C)O)n3)nc1)C2 [Example 83, 2-(4-((2-((5-(6-ethyl-2,6-diazaspiro[3.3]heptan-2-yl)pyridin-2-yl)amino)-5-fluoropyrimidin-4-yl)ethynyl)-1-methyl-1H-pyrazol-5-yl)propan-2-ol]
22 | 1040 nM |  |  |  | CC(C)n1c(C#Cc2nc(N[C@@H]3CCOC[C@H]3O)ncc2F)cnc1CN1CCC[C@H](O)C1 [Example 102, (S)-1-((5-((5-fluoro-2-(((3 S,4R)-3-hydroxytetrahydro-2H-pyran-4-yl)amino)pyrimidin-4-yl)ethynyl)-1-isopropyl-1H-imidazol-2-yl)methyl)piperidin-3-ol]

Row | Compound | IC50 (CDK4/cyclin D3; [1]) | IC50 (CDK6/cyclin D3; [1]) | IC50 (CDK4/cyclin D3; unmarked data: 80 µM ATP in Step 1) | IC50 (CDK6/cyclin D3; unmarked data: 100 µM ATP in Step 1)
23 | (3 S,4R)-4-((5-chloro-4-((1-(1, 1-difluoropropan-2-yl)-1H-imidazol-5-yl)ethynyl)pyrimidin-2-yl)amino)tetrahydro-2H-pyran-3-ol [Example 134] | 36.1 nM | 230 nM |  | 

From EP4782445A1, “CDK KINASE INHIBITOR AND USE THEREOF” (Abbisko Therapeutics Co., Ltd., priority 2023, dated 2025)
